Results reported in article PMC5514907, “Targeting of the breast cancer microenvironment with a potent and linkable oxindole based antiangiogenic small molecule” (Oncotarget, 2017).
Entries after “also recorded” stand apart in the source; their conditions may differ. Like-named read-outs stand apart in the source and are kept apart here.

What was measured:
VEGFR-2 [1] = target: T1, VEGFR-2 (Homo sapiens, UniProt P35968); experiment: Biochemical tyrosine kinase assay (trans-phosphorylation, GST-fusion protein); set-up: 789-end; purchased Sigma Aldrich K2643; conditions: in vitro kinase activity, ± SD
Target sequence in this assay (P35968 789-1356 limits assumed): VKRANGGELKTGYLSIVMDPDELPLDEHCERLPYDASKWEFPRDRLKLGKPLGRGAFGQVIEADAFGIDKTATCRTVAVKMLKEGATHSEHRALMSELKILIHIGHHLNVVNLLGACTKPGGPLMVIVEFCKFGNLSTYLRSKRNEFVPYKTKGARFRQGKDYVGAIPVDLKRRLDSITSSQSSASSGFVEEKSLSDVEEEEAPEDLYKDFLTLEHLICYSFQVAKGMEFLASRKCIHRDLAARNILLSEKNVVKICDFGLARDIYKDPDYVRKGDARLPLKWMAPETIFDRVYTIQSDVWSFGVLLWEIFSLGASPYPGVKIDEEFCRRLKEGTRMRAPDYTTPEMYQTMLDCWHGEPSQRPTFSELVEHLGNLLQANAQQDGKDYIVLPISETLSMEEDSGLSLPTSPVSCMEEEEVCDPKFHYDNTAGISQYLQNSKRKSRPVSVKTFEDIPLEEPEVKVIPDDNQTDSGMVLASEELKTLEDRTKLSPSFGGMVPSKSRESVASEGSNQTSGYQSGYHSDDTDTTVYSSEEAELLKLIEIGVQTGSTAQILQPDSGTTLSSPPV

[2] = Pharmacokinetic evaluation in blood by LC-MS/MS; assay type: in vivo, female NOD/SCID mice; conditions: for AUC(0-t) / Tmax / Cmax: 100 umol/kg; for AUC(0-t) / Cmax: ± S.D.; for AUC(0-t): read-out: AUC0-24
Description: The in vitro efficacy of SAP was followed by its pharmacokinetic evaluation in mice. Initially, the PK parameters of SAP were compared in an oral versus IP administration (Figure 3).
Figure 3 Pharmacokinetic evaluation of SAP Female NOD/SCID mice (n = 6) were dosed per os or IP with SAP (100 μmol/Kg) and blood samples were collected at selected time points. Drug levels of SAP were monitored by LC-MS/MS. The AUC for each treatment was calculated as a measure of drug exposure over time. TEXT PRINTED IN THE PICTURE: SAP: Cmax (μmol/L) (± S.D.): 0.2 (± 0.1) (Administration Route: per os; Dose (μmol/Kg): 100); tmax (h): 1 (Administration Route: per os; Dose (μmol/Kg): 100); AUC0-24 (± S.D.) (h) x (μmol/L): 2.5 (± 2.3) (Administration Route: per os; Dose (μmol/Kg): 100); Cmax (μmol/L) (± S.D.): 27 (± 3.6) (Administration Route: Intraperitoneal; Dose (μmol/Kg): 100); tmax (h): 0.25 (Administration Route: Intraperitoneal; Dose (μmol/Kg): 100); AUC0-24 (± S.D.) (h) x (μmol/L): 50.3 (± 15.3) (Administration Route: Intraperitoneal; Dose (μmol/Kg): 100)
All animal procedures were approved by the Bioethical Committee of BRFAA based on the European Directive 86/609. For pharmacokinetic studies, female NOD/SCID mice (Charles River, Italy) were used (8–10 weeks old, n = 6 per group). Dosing solutions of SAP (100 μmol/Kg) were prepared in 20% 2-hydroxypropyl β-Cyclodextrin in sterile water (HP-b-CD). SAP was administered intraperitoneally (IP) or orally and blood samples were collected and prepared as described previously.

[3] = target: VEGFR-2, PDGFR-β, KIT, FLT3 and RET; experiment: Biochemical tyrosine kinase assay, RTK panel summary; conditions: range over the RTK targets of sunitinib; read-out: IC50 over most of the RTKs
[4] = Hematotoxicity, blood analysis; conditions: 100 μmol/Kg daily IP, one week; vehicle 2.90 ± 0.8
EGFR = target: T2, EGFR (Homo sapiens, UniProt P00533); experiment: Biochemical tyrosine kinase assay (trans-phosphorylation, GST-fusion protein), negative control; conditions: in vitro kinase activity
T2 construct: 695-end; purchased Sigma Aldrich SRP5023
T2 sequence (P00533 695-1210 limits assumed): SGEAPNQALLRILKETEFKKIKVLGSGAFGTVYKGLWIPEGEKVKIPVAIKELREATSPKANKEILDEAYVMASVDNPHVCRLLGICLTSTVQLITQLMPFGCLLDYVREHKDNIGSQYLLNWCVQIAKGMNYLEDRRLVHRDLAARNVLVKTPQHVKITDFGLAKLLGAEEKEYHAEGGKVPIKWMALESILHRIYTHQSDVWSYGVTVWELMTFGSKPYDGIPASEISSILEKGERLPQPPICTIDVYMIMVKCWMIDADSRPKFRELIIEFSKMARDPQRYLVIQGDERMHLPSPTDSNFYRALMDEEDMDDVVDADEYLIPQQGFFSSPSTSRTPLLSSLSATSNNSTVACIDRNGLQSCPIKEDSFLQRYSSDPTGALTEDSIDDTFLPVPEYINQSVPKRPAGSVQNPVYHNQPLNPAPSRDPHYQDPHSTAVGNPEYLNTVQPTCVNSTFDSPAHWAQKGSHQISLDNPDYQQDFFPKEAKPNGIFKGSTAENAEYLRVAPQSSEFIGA

HUVEC = experiment: MTT cytotoxicity assay; assay type: cell-based; conditions: Homo sapiens
HCC1954 = experiment: MTT cytotoxicity assay; assay type: cell-based; conditions: Homo sapiens
[5] = system: Tg(kdrl:gfp)^s843 transgenic embryos; assay type: in vivo; conditions: for intersomitic vessel (ISV) formation / angiogenic sprouting at 48 hpf: treated from 24 to 48 hpf
PDGFR-β [6] = target: T3, PDGFR-β (Mus musculus, UniProt P05622); experiment: Cellular ligand-dependent autophosphorylation assay (Western blot) in NIH/3T3; assay type: cell-based; conditions: NIH/3T3, PDGF-BB stimulated, ± SD
T3 construct: host or cells: NIH/3T3
T3 sequence (P05622 32-1098): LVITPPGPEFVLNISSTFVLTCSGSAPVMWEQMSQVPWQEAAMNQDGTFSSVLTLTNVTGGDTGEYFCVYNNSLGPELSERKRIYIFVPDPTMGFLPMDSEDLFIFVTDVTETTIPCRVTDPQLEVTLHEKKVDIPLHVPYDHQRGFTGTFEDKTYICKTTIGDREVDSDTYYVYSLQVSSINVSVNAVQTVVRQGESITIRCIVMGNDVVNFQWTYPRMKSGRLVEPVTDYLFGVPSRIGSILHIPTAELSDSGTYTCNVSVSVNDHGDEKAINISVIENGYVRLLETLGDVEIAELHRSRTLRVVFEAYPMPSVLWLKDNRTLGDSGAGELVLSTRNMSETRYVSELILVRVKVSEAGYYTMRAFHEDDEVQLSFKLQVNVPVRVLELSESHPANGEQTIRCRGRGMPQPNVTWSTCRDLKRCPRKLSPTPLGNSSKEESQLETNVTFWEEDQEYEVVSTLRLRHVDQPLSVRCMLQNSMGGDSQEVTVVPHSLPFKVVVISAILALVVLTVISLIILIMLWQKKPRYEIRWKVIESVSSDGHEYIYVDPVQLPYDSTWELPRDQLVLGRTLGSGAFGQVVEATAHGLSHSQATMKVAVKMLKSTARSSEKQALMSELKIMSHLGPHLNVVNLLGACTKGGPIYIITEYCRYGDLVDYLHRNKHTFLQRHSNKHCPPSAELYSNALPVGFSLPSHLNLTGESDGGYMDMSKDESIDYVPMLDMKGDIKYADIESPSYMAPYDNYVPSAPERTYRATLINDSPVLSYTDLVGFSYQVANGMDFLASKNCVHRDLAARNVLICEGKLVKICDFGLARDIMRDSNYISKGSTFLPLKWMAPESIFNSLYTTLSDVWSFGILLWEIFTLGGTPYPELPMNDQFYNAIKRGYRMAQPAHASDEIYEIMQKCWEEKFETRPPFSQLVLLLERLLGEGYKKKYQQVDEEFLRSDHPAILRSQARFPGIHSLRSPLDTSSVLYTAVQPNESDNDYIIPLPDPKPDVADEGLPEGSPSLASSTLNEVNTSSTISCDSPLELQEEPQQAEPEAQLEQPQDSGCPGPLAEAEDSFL

SKBR3 = experiment: MTT cytotoxicity assay; assay type: cell-based; conditions: Homo sapiens, SK-BR-3
T47D = experiment: MTT cytotoxicity assay; assay type: cell-based; conditions: Homo sapiens
ZR75-1 = experiment: MTT cytotoxicity assay; assay type: cell-based; conditions: Homo sapiens, ZR-75-1
RET = target: T4, RET (Homo sapiens, UniProt P07949); experiment: Biochemical tyrosine kinase assay (trans-phosphorylation, GST-fusion protein); conditions: in vitro kinase activity, ± SD
T4 construct: 658-end; purchased Sigma Aldrich R7782
T4 sequence (P07949 658-1063 limits assumed): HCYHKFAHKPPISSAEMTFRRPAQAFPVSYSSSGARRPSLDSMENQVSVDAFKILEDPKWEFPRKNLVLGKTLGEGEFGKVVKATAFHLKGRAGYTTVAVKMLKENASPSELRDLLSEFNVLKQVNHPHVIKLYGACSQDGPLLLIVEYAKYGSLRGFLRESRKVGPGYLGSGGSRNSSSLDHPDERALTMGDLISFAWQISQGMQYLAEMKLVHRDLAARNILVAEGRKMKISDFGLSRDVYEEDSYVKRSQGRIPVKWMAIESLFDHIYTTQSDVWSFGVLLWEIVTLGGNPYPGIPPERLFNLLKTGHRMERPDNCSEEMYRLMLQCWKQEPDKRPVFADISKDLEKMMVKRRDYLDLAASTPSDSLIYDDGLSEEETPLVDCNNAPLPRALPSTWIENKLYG

MCF7 = experiment: MTT cytotoxicity assay; assay type: cell-based; conditions: Homo sapiens
[7] = system: phosphorylation status of 18 kinases; experiment: In vivo kinase activity (PathScan intracellular signaling array) in HCC1954 tumor extracts; set-up: species or system NOD/SCID mice; conditions: HCC1954 tumors, d18
VEGFR-2 [8] = target: T1, VEGFR-2; experiment: Cellular ligand-dependent autophosphorylation assay (Western blot) in HUVEC; assay type: cell-based; set-up: host or cells: HUVEC; conditions: VEGF165 stimulated, ± SD
FLT3 = target: T5, FLT3 (Homo sapiens, UniProt P36888); experiment: Biochemical tyrosine kinase assay (trans-phosphorylation, GST-fusion protein); conditions: in vitro kinase activity, ± SD
T5 construct: 571–993; purchased Sigma Aldrich F6432
T5 sequence (P36888 571-993): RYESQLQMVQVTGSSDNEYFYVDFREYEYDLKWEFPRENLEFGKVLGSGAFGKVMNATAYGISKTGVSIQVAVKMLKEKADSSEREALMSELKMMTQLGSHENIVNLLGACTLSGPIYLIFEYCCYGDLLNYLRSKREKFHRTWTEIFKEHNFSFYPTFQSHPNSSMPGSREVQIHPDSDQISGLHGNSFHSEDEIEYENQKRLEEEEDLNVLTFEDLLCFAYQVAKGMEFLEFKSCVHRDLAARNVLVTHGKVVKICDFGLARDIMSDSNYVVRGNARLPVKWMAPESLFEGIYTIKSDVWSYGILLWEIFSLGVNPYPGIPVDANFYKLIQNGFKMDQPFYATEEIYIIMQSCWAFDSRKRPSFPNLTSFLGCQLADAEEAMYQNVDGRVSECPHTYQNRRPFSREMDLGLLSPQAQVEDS

MDA-MB-231 = experiment: Wound healing/migration assay; assay type: cell-based; conditions: various concentrations, 24 hours
[9] = system: E0771 BrCa murine cell line; experiment: In vivo antitumor efficacy, syngeneic model, ectopic implantation; set-up: species or system C57BL/6 mice; conditions: 100 μmol/Kg daily IP
Source text: (§1) Despite the efficacy and favourable safety profile of SAP in xenografted models of primary BrCa, a critical question that remained was its evaluation in a more clinically relevant disease model of BrCa that would involve interaction of cancer with the immune system, which is crucial for the progression of the disease.

HCC1954 xenograft [10] = conditions: HCC1954, 100 μmol/Kg/day IP; for average tumor size at d18: 18 days, vehicle 428 ± 101; for neo-angiogenesis upon sacrifice: d18; for average tumor weight upon sacrifice (d18): vehicle 0.26 ± 0.07
[11] = Cardiotoxicity, echocardiography of LV function; assay type: in vivo, C57BL/6 female mice; conditions: for %FS (Fractional Shortening) at one week post treatment: 100 μmol/Kg daily IP, vehicle 46.34 ± 0.56
PDGFR-β [12] = target: T6, PDGFR-β (Homo sapiens, UniProt P09619); experiment: Biochemical tyrosine kinase assay (trans-phosphorylation, GST-fusion protein); conditions: in vitro kinase activity, ± SD; read-out: IC50 PDGFR-b
T6 construct: 557-end; purchased Sigma Aldrich G8671
T6 sequence (P09619 557-1106 limits assumed): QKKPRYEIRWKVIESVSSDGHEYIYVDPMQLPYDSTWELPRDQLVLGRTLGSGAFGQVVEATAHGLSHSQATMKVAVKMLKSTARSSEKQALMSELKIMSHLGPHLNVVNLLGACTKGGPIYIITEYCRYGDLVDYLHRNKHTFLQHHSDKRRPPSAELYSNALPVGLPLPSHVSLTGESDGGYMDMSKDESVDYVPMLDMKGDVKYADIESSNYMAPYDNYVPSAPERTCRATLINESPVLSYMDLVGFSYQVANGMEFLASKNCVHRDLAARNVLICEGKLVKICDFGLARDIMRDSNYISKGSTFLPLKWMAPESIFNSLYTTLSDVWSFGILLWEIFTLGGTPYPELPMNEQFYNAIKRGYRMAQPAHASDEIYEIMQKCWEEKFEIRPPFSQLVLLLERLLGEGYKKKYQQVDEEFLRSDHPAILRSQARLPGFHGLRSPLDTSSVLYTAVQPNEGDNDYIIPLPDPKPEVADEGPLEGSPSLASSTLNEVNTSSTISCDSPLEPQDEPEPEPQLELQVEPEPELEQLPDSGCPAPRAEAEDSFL

[13] = system: panel of BrCa cell lines and HUVEC; experiment: MTT cytotoxicity assay, summary over all cell lines; assay type: cell-based; conditions: Homo sapiens, range over six BrCa cell lines and HUVEC
[14] = Whole embryo LC-MS/MS biodistribution (bioaccumulation); assay type: in vivo, zebrafish; conditions: 24h post drug exposure, 50 μM, data not shown
HCC1954 xenograft [15] = experiment: Immunohistochemistry (Ki-67, CD31) of tumor sections; assay type: in vivo, NOD/SCID mice
KIT = target: T7, KIT (Homo sapiens, UniProt P10721); experiment: Biochemical tyrosine kinase assay (trans-phosphorylation, GST-fusion protein); conditions: in vitro kinase activity, ± SD
T7 construct: 544-end; purchased Sigma Aldrich C0624
T7 sequence (P10721 544-976 limits assumed): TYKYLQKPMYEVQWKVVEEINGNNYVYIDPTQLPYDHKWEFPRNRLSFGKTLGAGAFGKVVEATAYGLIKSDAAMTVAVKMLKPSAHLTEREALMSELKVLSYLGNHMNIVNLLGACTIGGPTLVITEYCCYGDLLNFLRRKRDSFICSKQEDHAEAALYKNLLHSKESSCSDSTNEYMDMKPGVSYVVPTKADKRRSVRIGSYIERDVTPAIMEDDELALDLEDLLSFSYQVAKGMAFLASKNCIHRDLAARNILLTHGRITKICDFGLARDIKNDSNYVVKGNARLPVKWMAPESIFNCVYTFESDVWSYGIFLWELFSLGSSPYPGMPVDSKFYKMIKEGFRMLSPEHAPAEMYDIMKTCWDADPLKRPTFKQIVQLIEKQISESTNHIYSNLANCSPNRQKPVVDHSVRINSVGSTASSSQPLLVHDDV

[16] = system: E0771 BrCa murine cell line; experiment: In vivo antitumor efficacy, syngeneic model, orthotopic implantation; set-up: species or system C57BL/6 mice; conditions: 100 μmol/Kg daily IP
Source text: as §1

in vivo [17] = conditions: female, NOD/SCID, mouse, blood, ip, 100 μmol/Kg
[18] = set-up: method as in PMID 26645560; conditions: IP, equimolar dose, previous results ref 18; cited from earlier work
in vivo [19] = conditions: female, NOD/SCID, mouse, blood, ip, 100 μmol/Kg; remark: listed apart in the source
[20] = female, NOD/SCID, mouse, ip, intraperitoneal, blood
[21] = female, NOD/SCID, mouse, po, per os, blood

Cc1[nH]c(/C=C2\C(=O)Nc3ccc(F)cc32)c(C)c1C(=O)NCCN1CCNCC1 [SAP]
IC50 (VEGFR-2 [1]): 0.075 µM | concentration at 8 h ([2]; female, NOD/SCID, mouse, ip, 100 μmol/Kg, intraperitoneal, 100 umol/Kg, blood, 8 h post-dose, read-out: C8 h): 0.93 ± 0.3 µM | AUC(0-t) ([2]; female, NOD/SCID, mouse, ip, intraperitoneal, 100 μmol/Kg, blood): 50.3 ± 15.3 µM·h | Tmax [2, 20]: 15 min | Cmax [2, 20]: 27 ± 3.6 µM | AUC(0-t) ([2]; female, NOD/SCID, mouse, po, per os, 100 μmol/Kg, blood): 2.5 ± 2.3 µM·h | Tmax [2, 21]: 60 min | Cmax [2, 21]: 0.2 ± 0.1 µM | time for which concentrations of at least 0.1 μmol/L are sustained post-dose ([2]; intraperitoneal, 100 umol/Kg): more than 8 h | signs of discomfort or overt toxicity in treated mice ([2]; single dose 100 μmol/Kg, per os or IP): No signs of discomfort or overt toxicity | IC50 [3]: 0.061 to 0.102 µM | white blood cell populations [4]: 2.54 ± 1.0 × 10^3 cells | IC50 (EGFR): > 10 µM | IC50 (HUVEC): 14.2 µM | IC50 (HCC1954): 13.5 µM | toxic or off-target morphological phenotypes ([5]; 50 μM, 24h treatment): No toxic or off-target morphological phenotypes | intersomitic vessel (ISV) formation / angiogenic sprouting at 48 hpf ([5]; 50 μM): uniform GFP expression in intersomitic vessels; also recorded: minor ISV formation inhibition | intersomitic vessel (ISV) formation / angiogenic sprouting at 48 hpf ([5]; 100 μM): inhibited angiogenic sprouting; also recorded: more profound | IC50 (PDGFR-β [6]): 0.076 ± 0.022 µM | IC50 (SKBR3): 15.5 µM | IC50 (T47D): 6.5 µM | IC50 (ZR75-1): 14.1 µM | IC50 (RET): 0.102 µM | IC50 (MCF7): 10.3 µM | phosphorylation status of kinases in tumor extracts versus vehicle [7]: marked downregulation of pErk1/2 (Thr202/Tyr204), pAkt (Ser473) and pGSK3 (Ser9) | IC50 (VEGFR-2 [8]): 0.052 ± 0.014 µM | IC50 (FLT3): 0.069 µM | MDA-MB-231 migration in wound healing assay (MDA-MB-231): inhibited MDA-MB-231 migration | tumour growth versus vehicle [9]: significant tumour growth inhibition | average tumor size at d18 (HCC1954 xenograft [10]): 76 ± 52 mm^3 | neo-angiogenesis upon sacrifice (HCC1954 xenograft [10]): only traces of newly formed blood vessels | average tumor weight upon sacrifice (d18) (HCC1954 xenograft [10]): 0.05 ± 0.02 g | %FS (Fractional Shortening) at one week post treatment [11]: 42.38 ± 0.76% | %FS (Fractional Shortening), baseline measurement ([11]; before treatment): 47.48 ± 0.91% | IC50 (PDGFR-β [12]): 0.093 µM | IC50 [13]: 6.5 to 15.8 µM | uptake from fish embryos [14]: ~50% | average number of CD31+ cells in tumor sections (HCC1954 xenograft [15]; d18, vehicle 42.4 ± 8.3): 16.6 ± 7.1 | Ki-67 assessed PI (proliferation index) (HCC1954 xenograft [15]; d18, vehicle 82.3 ± 11.1): 19.2 ± 4.9% | IC50 (KIT): 0.061 µM | tumour growth versus vehicle [16]: significant tumour growth inhibition

CCN(CC)CCNC(=O)c1c(C)[nH]c(/C=C2\C(=O)Nc3ccc(F)cc32)c1C [sunitinib, reference compound]
concentration at 1 h (in vivo [17]): 10.8 ± 2.1 µM | white blood cell populations [4]: 2.24 ± 0.5 × 10^3 cells | AUC0−24 h [18]: 21.4 ± 3.6 h x μmol/L | Cmax [18]: 6.5 ± 0.9 µM | Tmax [18]: 15 min | IC50 (HCC1954): 13.9 µM | IC50 (PDGFR-β [6]): 0.072 ± 0.019 µM | concentration at 1 h (in vivo [19]): 10.3 ± 3.7 µM | IC50 (SKBR3): 13.2 µM | IC50 (T47D): 11.5 µM | IC50 (ZR75-1): 11.4 µM | IC50 (MCF7): 11.2 µM | phosphorylation status of kinases in tumor extracts versus vehicle [7]: marked downregulation of pErk1/2 (Thr202/Tyr204), pAkt (Ser473) and pGSK3 (Ser9) | tumour growth versus vehicle [9]: significant tumour growth inhibition | average tumor size at d18 (HCC1954 xenograft [10]): 152 ± 57 mm^3 | neo-angiogenesis upon sacrifice (HCC1954 xenograft [10]): only traces of newly formed blood vessels | average tumor weight upon sacrifice (d18) (HCC1954 xenograft [10]): 0.07 ± 0.03 g | %FS (Fractional Shortening) at one week post treatment [11]: 45.42 ± 0.11% | tumour growth versus vehicle [16]: significant tumour growth inhibition
